TGI and GI50 data for 18 molecules are collected here from PubChem BioAssay (NCI).

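Five concentrations, 48 hours, 96-well plates. GI50 = concentration required for 50% inhibition of growth. TGI is the concentration that stops growth completely.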

For one experiment, the system named is LXFL 529 NSCLC. Put plainly: NCI tumour cell line growth inhibition, 48 h.
Turning to `CC(=O)Oc1cc2c(cc1OC(C)=O)C1(C)CCC2(C)c2cc(OC(C)=O)c(OC(C)=O)cc21`, the TGI is 19.6 µM.

On to `O=C(NC(=O)c1c(F)cccc1F)Nc1cccc(Oc2ncc(Cl)cn2)c1`, for which the TGI was above 100 µM.

The next experiment has as its system P388/ADR leukemia. Put plainly: NCI tumour cell line growth inhibition, 48 h.
As to `CNC(=O)OCc1nc(SSC(C)(C)C)n(C)c1COC(=O)NC`, the TGI is above 28.2 µM.

`N[C@H](C(=O)O)[C@@H]1CC(Cl)=NO1` returned a TGI of 16.7 µM.

In another experiment the test system is SN12K1 renal. The experiment in a line: NCI tumour cell line growth inhibition, 48 h.
In the case of `CNC(=O)OCc1nc(SSC(C)(C)C)n(C)c1COC(=O)NC`, the TGI amounted to 14.9 µM.

As for `N[C@H](C(=O)O)[C@@H]1CC(Cl)=NO1`, the TGI is above 1000 µM.

The test system of a further experiment is DMS 114 small cell lung. Put plainly: NCI tumour cell line growth inhibition, 48 h.
`CCCCCCCCCCCC(=O)OCCOCCOCCOCCOCCOC(=O)CCCCCCCCCCC`: the TGI is above 100 µM.

On to `CC1(O)C(C)(O)C2(C)O[Te]3(OC12C)OC1(C)C(C)(O)C(C)(O)C1(C)O3` (stereo not given), for which the TGI was 54.4 µM.

As for `O=C1COc2cc(NC(=S)Nc3ccccc3)ccc2N1`, the TGI is above 100 µM.

On to `O=C1C=C(Nc2ccccc2C(=O)CC(=O)C(=O)Nc2cccc([N+](=O)[O-])c2)c2ccccc2C1=O`, for which the TGI was found to be 84.9 µM.

`CNC(=O)OCc1nc(SSC(C)(C)C)n(C)c1COC(=O)NC` displayed a TGI of 4.15 µM.

In the case of `O=C(Nc1ccc(Cl)cc1)C1C(=O)C(=O)N(c2ccc(Cl)cc2)C1=O` (stereo not given), the TGI is above 100 µM.

The molecule `O=C(Nc1ccc(C(F)(F)F)cc1[N+](=O)[O-])C(=O)C1NC(=S)NC1=O` (stereo not given) showed a TGI above 100 µM.

In the case of `COc1cc(NCC(C#N)C#N)ccc1N=Nc1ccc(Cl)cc1`, the TGI came out at 48.2 µM.

With `N[C@H](C(=O)O)[C@@H]1CC(Cl)=NO1`, the TGI came to 258 µM.

Molecule `O=C1N/C(=C\[N+](=O)[O-])c2ccccc21` had a TGI above 100 µM.

`Nc1ncnc2c1ncn2C1C=C(CO)C(O)C1O` (stereo not given) showed a TGI of 69.2 µM.

For the molecule `NC(CCCC(N)P(=O)(O)O)P(=O)(O)O` (stereo not given), the TGI was above 100 µM.

Take `CCOC(=O)[CH-]C(=O)C12CC3CC(CC(C3)C1)C2.CCOC(=O)[CH-]C(=O)C12CC3CC(CC(C3)C1)C2.CC[O-].CC[O-].[Ti+4]`: the GI50 was above 100 µM and the TGI is above 100 µM.

In turn, `C[C@]12CC=CC(=O)[C@@]1(C)CCC(=O)C2` displayed a TGI above 100 µM.

As for `O=C(NC(=O)c1c(F)cccc1F)Nc1cccc(Oc2ncc(Cl)cn2)c1`, the TGI was above 100 µM.

The test system of a further experiment is MDA-N. The experiment in a line: NCI tumour cell line growth inhibition, 48 h.
In turn, `CNC(=O)OCc1nc(SSC(C)(C)C)n(C)c1COC(=O)NC` yielded a TGI of 6.59 µM.

On to `N[C@H](C(=O)O)[C@@H]1CC(Cl)=NO1`, for which the GI50 was 57.2 µM and the TGI is above 1000 µM.

`NCCCNCCS` gave a TGI above 100 µM.

For the molecule `Nc1ncnc2c1ncn2C1C=C(CO)C(O)C1O` (stereo not given), the TGI is above 100 µM.

Turning to `O=C(NC(=O)c1c(F)cccc1F)Nc1cccc(Oc2ncc(Cl)cn2)c1`, the TGI was above 22.7 µM.

The subject of the next experiment is RXF-631 renal. Put plainly: NCI tumour cell line growth inhibition, 48 h.
As to `CC(=O)Oc1c(C)c(-c2ccccc2)c(C)c(-c2ccccc2)c1C(=S)c1ccccc1`, the TGI is above 100 µM.

In turn, `CCCCCCCCCCCC(=O)OCCOCCOCCOCCOCCOC(=O)CCCCCCCCCCC` gave a TGI above 100 µM.

Regarding `CC1(O)C(C)(O)C2(C)O[Te]3(OC12C)OC1(C)C(C)(O)C(C)(O)C1(C)O3` (stereo not given), the TGI is above 100 µM.

`O=C1COc2cc(NC(=S)Nc3ccccc3)ccc2N1` gave a TGI above 100 µM.

With `O=C1C=C(Nc2ccccc2C(=O)CC(=O)C(=O)Nc2cccc([N+](=O)[O-])c2)c2ccccc2C1=O`, the TGI is above 100 µM.

Turning to `CNC(=O)OCc1nc(SSC(C)(C)C)n(C)c1COC(=O)NC`, the TGI stood at 3.42 µM.

Take `O=C(Nc1ccc(Cl)cc1)C1C(=O)C(=O)N(c2ccc(Cl)cc2)C1=O` (stereo not given): the TGI was above 100 µM.

The molecule `O=C(Nc1ccc(C(F)(F)F)cc1[N+](=O)[O-])C(=O)C1NC(=S)NC1=O` (stereo not given) gave a TGI above 100 µM.

`COc1cc(NCC(C#N)C#N)ccc1N=Nc1ccc(Cl)cc1` showed a TGI above 100 µM.

On to `NCCCNCCS`, for which the TGI is above 100 µM.

Consider `O=C1N/C(=C\[N+](=O)[O-])c2ccccc21`, for which the TGI is above 100 µM.

With `Nc1ncnc2c1ncn2C1C=C(CO)C(O)C1O` (stereo not given), the TGI came to 30 µM.

In the case of `NC(CCCC(N)P(=O)(O)O)P(=O)(O)O` (stereo not given), the TGI was above 100 µM.

Take `CCOC(=O)[CH-]C(=O)C12CC3CC(CC(C3)C1)C2.CCOC(=O)[CH-]C(=O)C12CC3CC(CC(C3)C1)C2.CC[O-].CC[O-].[Ti+4]`: the GI50 was above 100 µM and the TGI was above 100 µM.

`C[C@]12CC=CC(=O)[C@@]1(C)CCC(=O)C2`: the TGI was above 100 µM.

Turning to `CC(=O)Oc1cc2c(cc1OC(C)=O)C1(C)CCC2(C)c2cc(OC(C)=O)c(OC(C)=O)cc21`, the TGI is above 100 µM.

`O=C(NC(=O)c1c(F)cccc1F)Nc1cccc(Oc2ncc(Cl)cn2)c1` displayed a TGI above 100 µM.

The next experiment relates to SNB-78 CNS. The experiment in a line: NCI tumour cell line growth inhibition, 48 h.
With `CC(=O)Oc1c(C)c(-c2ccccc2)c(C)c(-c2ccccc2)c1C(=S)c1ccccc1`, the TGI is above 100 µM.

Consider `CCCCCCCCCCCC(=O)OCCOCCOCCOCCOCCOC(=O)CCCCCCCCCCC`, for which the TGI is above 100 µM.

`CC1(O)C(C)(O)C2(C)O[Te]3(OC12C)OC1(C)C(C)(O)C(C)(O)C1(C)O3` (stereo not given) registered a TGI above 100 µM.

`O=C1COc2cc(NC(=S)Nc3ccccc3)ccc2N1` showed a TGI above 100 µM.

Molecule `O=C1C=C(Nc2ccccc2C(=O)CC(=O)C(=O)Nc2cccc([N+](=O)[O-])c2)c2ccccc2C1=O` had a TGI above 100 µM.

`CNC(=O)OCc1nc(SSC(C)(C)C)n(C)c1COC(=O)NC` gave a TGI of 21.2 µM.

On to `O=C(Nc1ccc(Cl)cc1)C1C(=O)C(=O)N(c2ccc(Cl)cc2)C1=O` (stereo not given), for which the TGI is above 100 µM.

Turning to `O=C(Nc1ccc(C(F)(F)F)cc1[N+](=O)[O-])C(=O)C1NC(=S)NC1=O` (stereo not given), the TGI is above 100 µM.

In the case of `COc1cc(NCC(C#N)C#N)ccc1N=Nc1ccc(Cl)cc1`, the TGI worked out at 98.8 µM.

`N[C@H](C(=O)O)[C@@H]1CC(Cl)=NO1` displayed a TGI above 978 µM.

In turn, `NCCCNCCS` returned a TGI above 100 µM.

Take `O=C1N/C(=C\[N+](=O)[O-])c2ccccc21`: the TGI is above 100 µM.

Take `Nc1ncnc2c1ncn2C1C=C(CO)C(O)C1O` (stereo not given): the TGI is above 100 µM.

Molecule `NC(CCCC(N)P(=O)(O)O)P(=O)(O)O` (stereo not given) displayed a TGI above 100 µM.

As for `CCOC(=O)[CH-]C(=O)C12CC3CC(CC(C3)C1)C2.CCOC(=O)[CH-]C(=O)C12CC3CC(CC(C3)C1)C2.CC[O-].CC[O-].[Ti+4]`, the GI50 is above 100 µM and the TGI is above 100 µM.

With `C[C@]12CC=CC(=O)[C@@]1(C)CCC(=O)C2`, the TGI is above 100 µM.

In the case of `CC(=O)Oc1cc2c(cc1OC(C)=O)C1(C)CCC2(C)c2cc(OC(C)=O)c(OC(C)=O)cc21`, the TGI was above 100 µM.

Regarding `O=C(NC(=O)c1c(F)cccc1F)Nc1cccc(Oc2ncc(Cl)cn2)c1`, the TGI is above 100 µM.
